This assay concerns the target T1, human M2 receptor (Homo sapiens, UniProt P08172).
T1 sequence (P08172 1-466): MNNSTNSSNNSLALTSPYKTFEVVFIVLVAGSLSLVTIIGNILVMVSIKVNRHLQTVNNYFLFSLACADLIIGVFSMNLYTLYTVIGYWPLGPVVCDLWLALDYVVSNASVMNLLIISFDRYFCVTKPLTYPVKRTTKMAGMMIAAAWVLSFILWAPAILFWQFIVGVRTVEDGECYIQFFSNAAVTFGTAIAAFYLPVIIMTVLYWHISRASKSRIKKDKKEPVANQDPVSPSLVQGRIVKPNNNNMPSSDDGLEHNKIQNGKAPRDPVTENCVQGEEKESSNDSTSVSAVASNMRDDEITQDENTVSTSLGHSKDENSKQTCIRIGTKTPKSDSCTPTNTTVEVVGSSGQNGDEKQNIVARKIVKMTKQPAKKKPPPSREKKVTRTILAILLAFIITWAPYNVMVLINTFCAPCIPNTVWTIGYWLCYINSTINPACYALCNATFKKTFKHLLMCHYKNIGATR
As to conditions: for Emax: read-out: Efficiency, boosting of the acetylcholine effect at EC20 acetylcholine concentration.

[1] abbreviates: Receptor activity EC50, M2-GIRK1/4 activation test, acetylcholine at EC20, allosteric potency, in some cases mean values from two or more determinations.
[2] abbreviates: Receptor activity EC50, allosteric potency at EC20 acetylcholine, M2-GIRK1/4 reporter cells, in some cases mean of two or more determinations.

pEC50: −log10 of the molar value. Like-named read-outs stand apart in the source and are kept apart here.

The term pEC50 denotes the EC50 on a negative log10 scale, so that one unit is a factor of ten. A lower pEC50 goes with a high EC50. Regarding `C[C@@H](O)CNc1ccc2c(=O)c(C(=O)N[C@@H](C3CC3)C(F)(F)F)cn(-c3c(F)cc(F)cc3F)c2n1` [Example 378, N-[(1S)-1-Cyclopropyl-2,2,2-trifluoroethyl]-7-{[(2R)-2-hydroxypropyl]amino}-4-oxo-1-(2,4,6-trifluorophenyl)-1,4-dihydro-1,8-naphthyridine-3-carboxamide], the pEC50 under setting [1] was 7.09.

For the compound `C[C@@H](COC(F)(F)F)NC(=O)c1cn(-c2c(F)cc(F)cc2F)c2nc(N3C[C@@H](O)[C@H](O)C3)ccc2c1=O` [Example 353, 7-[(3R,4R)-3,4-Dihydroxypyrrolidin-1-yl]-4-oxo-N-[(2S)-1-(trifluoromethoxy)propan-2-yl]-1-(2,4,6-trifluorophenyl)-1,4-dihydro-1,8-naphthyridine-3-carboxamide], the pEC50 under setting [1] is 7.30.

Regarding `O=C(N[C@@H](C1CC1)C(F)(F)F)c1cn(-c2c(F)cccc2Cl)c2nc(N3C[C@@H](O)[C@H](O)C3)ccc2c1=O` [Example 347, 1-(2-Chloro-6-fluorophenyl)-N-[(1 S)-1-cyclopropyl-2,2,2-trifluoroethyl]-7-[(3R,4R)-3,4-dihydroxypyrrolidin-1-yl]-4-oxo-1,4-dihydro-1,8-naphthyridine-3-carboxamide], under setting [1], the pEC50 was 7.47. The pEC50 values of the last two compounds are within 0.2 log units of each other.

With `CC1CN(c2ccc3c(=O)c(C(=O)N[C@@H](C4CC4)C(F)(F)F)cn(-c4c(F)cc(F)cc4F)c3n2)C(=O)O1` (stereo in doubt) [Example 445, N-[(1 S)-1-Cyclopropyl-2,2,2-trifluoroethyl]-7-[(5S)-5-methyl-2-oxo-1,3-oxazolidin-3-yl]-4-oxo-1-(2,4,6-trifluorophenyl)-1,4-dihydro-1,8-naphthyridine-3-carboxamide], under setting [2], the pEC50 was 7.02. In addition, the Efficiency (boosting of the acetylcholine effect at EC20 acetylcholine concentration, M2-GIRK1/4 reporter cells) is 97.5%.

For the compound `O=C(NCc1c(Cl)cccc1Cl)c1cn(-c2ccc(F)cc2F)c2nc(N3CC(O)CC3=O)ccc2c1=O` (stereo not drawn) [compound 183], the pEC50 under setting [1] is 6.78.

For `O=C(N[C@@H](C1CC1)C(F)(F)F)c1cn(-c2c(F)cc(F)cc2F)c2nc(N3CC[C@@H](O)[C@H](O)C3)ccc2c1=O` (single isomer, unassigned) [Example 616], the pEC50 under setting [2] is 7.43. Moreover, the Emax (M2-GIRK1/4 reporter cells) was found to be 90.5%.

Turning to `CC[C@@H](NC(=O)c1cn(-c2ccc(F)cc2F)c2nc(N3CC(O)C(C)(C)C3)ccc2c1=O)C(F)(F)F` (stereo partly drawn) [Example 356, 1-(2,4-Difluorophenyl)-7-[4-hydroxy-3,3-dimethylpyrrolidin-1-yl]-4-oxo-N-[(2R)-1,1,1-trifluorobutan-2-yl]-1,4-dihydro-1,8-naphthyridine-3-carboxamide], the pEC50 under setting [1] was 7.03.

As for `CC(NC(=O)c1cn(-c2c(F)cc(F)cc2F)c2nc(N3C[C@@H](O)CC3=O)ccc2c1=O)C1CCC1` (mixture of isomers) [Example 471, N-[1-Cyclobutylethyl]-7-[(4S)-4-hydroxy-2-oxopyrrolidin-1-yl]-4-oxo-1-(2,4,6-trifluorophenyl)-1,4-dihydro-1,8-naphthyridine-3-carboxamide], the pEC50 under setting [2] is 8.00. Moreover, the Emax (M2-GIRK1/4 reporter cells) amounted to 89%.

As to `CC(C)C[C@H](NC(=O)c1cn(-c2c(F)cc(F)cc2F)c2nc(N3C[C@@H](O)[C@H](O)C3)ccc2c1=O)C(F)(F)F` [Example 559, 7-[(3R,4R)-3,4-Dihydroxypyrrolidin-1-yl]-4-oxo-N-[(2S)-1,1,1-trifluoro-4-methylpentan-2-yl]-1-(2,4,6-trifluorophenyl)-1,4-dihydro-1,8-naphthyridine-3-carboxamide], the pEC50 under setting [2] is 8.00. The Emax (M2-GIRK1/4 reporter cells) was determined as 99%.

Under setting [2], `CC[C@H](NC(=O)c1cn(-c2c(F)cc(F)cc2Cl)c2nc(N3C[C@@H](O)[C@H](O)C3)ccc2c1=O)C(F)(F)F` (single isomer, unassigned) [Example 567] gave a pEC50 of 6.85. Besides, the Emax (M2-GIRK1/4 reporter cells) was 80%.

On to `NC(=O)[C@H]1CN(c2ccc3c(=O)c(C(=O)N[C@@H](C4CC4)C(F)(F)F)cn(-c4c(F)cc(F)cc4F)c3n2)C(=O)O1` [Example 671, 7-[(5R)-5-Carbamoyl-2-oxo-1,3-oxazolidin-3-yl]-N-[(15)-1-cyclopropyl-2,2,2-trifluoroethyl]-4-oxo-1-(2,4,6-trifluorophenyl)-1,4-dihydro-1,8-naphthyridine-3-carboxamide], for which, under setting [2], the pEC50 is 7.00. Further, the Emax (M2-GIRK1/4 reporter cells) amounted to 94%.

Under setting [1], `O=C(NC(c1cccc(Cl)c1)C(F)(F)F)c1cn(-c2ccc(F)cc2F)c2nc(N3C[C@@H](O)CC3=O)ccc2c1=O` (mixture of isomers) [Example 274, N-[1-(3-Chlorophenyl)-2,2,2-trifluoroethyl]-1-(2,4-difluorophenyl)-7-[(4S)-4-hydroxy-2-oxopyrrolidin-1-yl]-4-oxo-1,4-dihydro-1,8-naphthyridine-3-carboxamide] showed a pEC50 of 7.31.

In turn, `CC[C@H](NC(=O)c1cn(-c2c(F)cc(F)cc2Cl)c2nc(N3C[C@@H](O)[C@H](O)C3)ccc2c1=O)C(F)(F)F` [Example 566, 1-(2-Chloro-4,6-difluorophenyl)-7-[(3R,4R)-3,4-dihydroxypyrrolidin-1-yl]-4-oxo-N-[(2S)-1,1,1-trifluorobutan-2-yl]-1,4-dihydro-1,8-naphthyridine-3-carboxamide] had a pEC50 under setting [2] of 7.80. Where the note is “M2-GIRK1/4 reporter cells”, the Emax amounted to 96.5%.

For `CC[C@@H](NC(=O)c1cn(-c2ccc(F)cc2F)c2nc(N3CCC(O)(O)C(F)C3)ccc2c1=O)C(F)(F)F` (mixture of isomers) [Example 34, 1-(2,4-Difluorophenyl)-7-[3-fluoro-4,4-dihydroxypiperidin-1-yl]-4-oxo-N-[(2R)-1,1,1-trifluorobutan-2-yl]-1,4-dihydro-1,8-naphthyridine-3-carboxamide (diastereomer mixture)], under setting [1], the pEC50 is 7.02.

Under setting [2], `CC(NC(=O)c1cn(-c2c(F)cc(F)cc2F)c2nc(N3C[C@@H](O)[C@H](O)C3)ccc2c1=O)(C1CC1)C(F)(F)F` (mixture of isomers) [Example 441, N-[2-Cyclopropyl-1,1,1-trifluoropropan-2-yl]-7-[(3R,4R)-3,4-dihydroxypyrrolidin-1-yl]-4-oxo-1-(2,4,6-trifluorophenyl)-1,4-dihydro-1,8-naphthyridine-3-carboxamide] had a pEC50 of 7.82. For the same compound, where the note is “M2-GIRK1/4 reporter cells”, the Emax is 100%.

In turn, `CC(C)(CC(F)(F)F)NC(=O)c1cn(-c2c(F)cc(F)cc2Cl)c2nc(N3C[C@@H](O)[C@H](O)C3)ccc2c1=O` [Example 391, 1-(2-Chloro-4,6-difluorophenyl)-7-[(3R,4R)-3,4-dihydroxypyrrolidin-1-yl]-4-oxo-N-(4,4,4-trifluoro-2-methylbutan-2-yl)-1,4-dihydro-1,8-naphthyridine-3-carboxamide] gave a pEC50 under setting [1] of 8.10.

For the compound `COC(=O)N1CCN(c2ccc3c(=O)c(C(=O)N[C@H](C4CC4)C(F)(F)F)cn(-c4c(F)cc(F)cc4F)c3n2)CC1` [Example 594, Methyl 4-[6-{[(1R)-1-cyclopropyl-2,2,2-trifluoroethyl]carbamoyl}-5-oxo-8-(2,4,6-trifluorophenyl)-5,8-dihydro-1,8-naphthyridin-2-yl]piperazine-1-carboxylate], under setting [2], the pEC50 was 7.74. Also, the Emax (M2-GIRK1/4 reporter cells) came out at 100%.

Under setting [1], `CN(C)c1ccc2c(=O)c(C(=O)NC(C)(C)c3c(F)cccc3F)cn(-c3ccc(F)cc3F)c2n1` [Example 53, 1-(2,4-Difluorophenyl)-N-[2-(2,6-difluorophenyl)propan-2-yl]-7-(dimethylamino)-4-oxo-1,4-dihydro-1,8-naphthyridine-3-carboxamide] had a pEC50 of 7.24.
